Measured values taken from DBAASP.
Converted amounts (≈) assume the structure as drawn. “And” between values parts separate entries of the source, which are not always exact repeats. Identical values can stand only once. Each block holds one compound with its values, some of them ahead of it.

Tests used:
Test in all cases: ≥ marks a high value that may be exact or a test limit, other limits are often not marked, values filed in µg/mL are converted to µM
[1] = system: Candida albicans NCYC 1467
[2] = system: Staphylococcus aureus ATCC 12493
Staphylococcus aureus = system: Staphylococcus aureus
[3] = system: Enterococcus faecalis NCTC 12697
[4] = system: Staphylococcus aureus NCTC 10788
[5] = system: Escherichia coli NCTC 10418
[6] = system: Klebsiella pneumoniae ATCC 43816
[7] = system: Pseudomonas aeruginosa ATCC 27853
[8] = system: Proteus mirabilis CCUG 26767
[9] = system: Klebsiella pneumoniae ATCC 13883
[10] = system: Staphylococcus aureus ATCC 29213
[11] = system: Bacillus subtilis ATCC 6633
[12] = system: Enterococcus faecalis ATCC 19433
[13] = system: Escherichia coli ATCC 25922
[14] = system: Enterococcus faecium ATCC 19434
[15] = system: Salmonella enterica subsp. enterica serovar Typhimurium LT2
[16] = system: Staphylococcus aureus 710A
[17] = system: Salmonella enterica subsp. enterica serovar Typhimurium ATCC 14028
Bacillus megaterium Bm11 = system: Bacillus megaterium Bm11
Escherichia coli ML-35 = system: Escherichia coli ML-35
Escherichia coli K99 = system: Escherichia coli K99
[18] = system: Pseudomonas aeruginosa PAO1
Escherichia coli K88 = system: Escherichia coli K88
[19] = system: Staphylococcus aureus ATCC 25923
[20] = system: Candida tropicalis CGMCC 2.1975
Escherichia coli 078 = system: Escherichia coli 078
[21] = system: Candida albicans CGMCC 2.2086
[22] = system: Salmonella enterica subsp. enterica serovar Typhimurium C77-31
Escherichia coli UB1005 = system: Escherichia coli UB1005
Escherichia coli 987P = system: Escherichia coli 987P
[23] = system: Lactiplantibacillus plantarum 8014
[24] = system: Candida parapsilosis CGMCC 2.3989
[25] = system: Staphylococcus epidermidis ATCC 12228
[26] = system: Lacticaseibacillus rhamnosus 7469
[27] = system: Staphylococcus aureus DSM 11729
Shigella sonnei DSM 5570 = system: Shigella sonnei DSM 5570
[28] = system: Salmonella enterica DSM 17058
[29] = system: Acinetobacter baumannii AL1851-ΔLpxA
[30] = system: Acinetobacter baumannii ATCC 19606
[31] = system: Staphylococcus epidermidis DSM 28319
[32] = system: Pseudomonas aeruginosa DSM 1117
[33] = system: Acinetobacter baumannii Al1852-ΔLpxD
[34] = system: Klebsiella pneumoniae DSM 789
[35] = system: Escherichia coli DSM 1103
[36] = system: Citrobacter freundii DSM 30029
[37] = system: Acinetobacter baumannii KCTC 2508
[38] = system: Bacillus subtilis KCTC 2217

SMILES: CC[C@H](C)[C@H](NC(=O)[C@H](CCCCN)NC(=O)[C@@H]1CCCN1C(=O)[C@H](CC(C)C)NC(=O)[C@@H](N)Cc1ccccc1)C(=O)N[C@@H](CC(C)C)C(=O)N[C@@H](CCCN=C(N)N)C(=O)N[C@@H](CCCCN)C(=O)N[C@H](C(=O)N[C@H](C(=O)N[C@@H](CCCN=C(N)N)C(=O)N[C@@H](C)C(=O)N[C@@H](CC(C)C)C(N)=O)C(C)C)[C@@H](C)CC [FLPKILRKIVRAL]
MIC [8]: ≥ 383 µM
MIC [9]: ≥ 47.9 µM
MIC [10]: 191 µM (≈ 300 µg/mL)
MIC [11]: ≥ 47.9 µM
MIC [12]: 23.9 µM (≈ 37.5 µg/mL)
MIC [13]: 23.9 µM (≈ 37.5 µg/mL)
MIC [14]: 23.9 µM (≈ 37.5 µg/mL)
MIC [7]: > 383 µM
MIC [15]: ≥ 47.9 µM

SMILES: CC[C@H](C)[C@H](NC(=O)[C@H](CCCCN)NC(=O)[C@H](CCCCN)NC(=O)[C@H](CC(C)C)NC(=O)[C@H](CC(C)C)NC(=O)CN)C(=O)N[C@@H](C)C(=O)N[C@@H](CCCCN)C(=O)N[C@@H](CCCCN)C(=O)N[C@@H](C)C(=O)N[C@@H](CCCCN)C(=O)N[C@@H](CCCCN)C(=O)N[C@@H](C)C(=O)N[C@@H](CC(C)C)C(=O)N[C@@H](CCCCN)C(=O)N[C@@H](CCCCN)C(=O)N[C@@H](CC(C)C)C(=O)NCC(=O)N[C@@H](Cc1ccc(O)cc1)C(N)=O [GLLKKIAKKAKKALKKLGY]
MIC [16]: 4 µM (≈ 8.39 µg/mL)
MIC [17]: 2 µM (≈ 4.2 µg/mL)
MIC (Bacillus megaterium Bm11): 1 µM (≈ 2.1 µg/mL)
MIC (Escherichia coli ML-35): 1 µM (≈ 2.1 µg/mL)
MIC [7]: 1 µM (≈ 2.1 µg/mL)

SMILES: CC[C@H](C)[C@H](NC(=O)[C@H](CC(=O)O)NC(=O)[C@H](Cc1c[nH]c2ccccc12)NC(=O)[C@H](CCCCN)NC(=O)[C@@H]1CCCN1C(=O)[C@H](CC(C)C)NC(=O)[C@H](CCSC)NC(=O)[C@H](Cc1ccc(O)cc1)NC(=O)[C@H](CC(C)C)NC(=O)[C@H](CC(N)=O)NC(=O)[C@@H](NC(=O)CNC(=O)[C@H](CCCCN)NC(=O)[C@H](Cc1ccccc1)NC(=O)[C@H](Cc1ccccc1)NC(=O)[C@H](CCCCN)NC(=O)[C@H](Cc1ccccc1)NC(=O)[C@H](Cc1ccccc1)NC(=O)[C@H](CCCCN)NC(=O)[C@H](Cc1ccccc1)NC(=O)[C@H](Cc1ccccc1)NC(=O)[C@@H](N)CCCCN)[C@@H](C)O)C(=O)N1CCC[C@H]1C(N)=O [KFFKFFKFFKGTNLYMLPKWDIP]
MIC [27]: ≥ 32 µM
MIC (Shigella sonnei DSM 5570): 0.25 µM (≈ 0.736 µg/mL)
MIC [28]: 2 µM (≈ 5.89 µg/mL)
MIC [29]: 0.25 µM (≈ 0.736 µg/mL)
MIC [30]: 0.25 µM (≈ 0.736 µg/mL)
MIC [31]: 1 µM (≈ 2.94 µg/mL)
MIC [32]: 1 µM (≈ 2.94 µg/mL)
MIC [33]: 0.25 µM (≈ 0.736 µg/mL)
MIC [34]: 0.25 µM (≈ 0.736 µg/mL)
MIC [35]: 0.5 µM (≈ 1.47 µg/mL)
MIC [36]: 0.5 µM (≈ 1.47 µg/mL)

SMILES: CC(C)C[C@H](NC(=O)[C@H](CC(C)C)NC(=O)[C@H](CCCCN)NC(=O)[C@H](CCCCN)NC(=O)[C@H](CC(C)C)NC(=O)[C@H](CC(C)C)NC(=O)[C@@H]1CCCN1C(=O)[C@H](CCCCN)NC(=O)[C@H](CCCCN)NC(=O)[C@H](CC(C)C)NC(=O)[C@H](CC(C)C)NC(=O)[C@H](CCCCN)NC(=O)[C@H](CCCCN)NC(=O)[C@H](Cc1c[nH]c2ccccc12)NC(=O)[C@@H](N)CCCCN)C(=O)N[C@@H](CCCCN)C(N)=O [KWKKLLKKPLLKKLLK]
MIC [37]: 3.13 µM (≈ 6.27 µg/mL)
MIC [19]: 1.56 µM and > 0.78 µM
MIC [38]: 1.56 µM (≈ 3.13 µg/mL)

Second part, led by results:

MIC [1]: ≥ 64 µM
MIC [2]: ≥ 256 µM
MIC (Staphylococcus aureus): > 256 µM
MIC [3]: ≥ 256 µM
MIC [4]: ≥ 64 µM
MIC [5]: 8 µM (≈ 9.58 µg/mL)
MIC [6]: ≥ 256 µM
MIC [7]: 32 µM (≈ 38.3 µg/mL)
SMILES: CC(C)C[C@H](NC(=O)[C@H](C)N)C(=O)N[C@@H](Cc1c[nH]c2ccccc12)C(=O)N[C@@H](CCCCN)C(=O)N[C@@H](CCCCN)C(=O)N[C@@H](CC(C)C)C(=O)N[C@@H](CC(C)C)C(=O)N[C@@H](CCCCN)C(=O)N[C@@H](CCCCN)C(=O)N[C@@H](C)C(N)=O [ALWKKLLKKA]

MIC (Escherichia coli K99): ≥ 64 µM
MIC [18]: > 64 µM
MIC [10]: > 64 µM
MIC [17]: > 64 µM
MIC (Escherichia coli K88): ≥ 64 µM
MIC [19]: > 64 µM
MIC [20]: ≥ 64 µM
MIC (Escherichia coli 078): ≥ 64 µM
MIC [21]: ≥ 64 µM
MIC [22]: ≥ 64 µM
MIC (Escherichia coli UB1005): ≥ 64 µM
MIC (Escherichia coli 987P): ≥ 64 µM
MIC [13]: > 64 µM
MIC [24]: ≥ 64 µM
MIC [7]: > 64 µM
MIC [25]: > 64 µM
MIC [26]: ≥ 64 µM
SMILES: CC[C@H](C)[C@H](N)C(=O)N[C@@H](Cc1cnc[nH]1)C(=O)N[C@@H](Cc1cnc[nH]1)C(=O)N[C@H](C(=O)N[C@@H](Cc1cnc[nH]1)C(=O)N[C@@H](Cc1cnc[nH]1)C(=O)N[C@H](C(N)=O)[C@@H](C)CC)[C@@H](C)CC [IHHIHHI]
MIC [23]: ≥ 64 µM
